Results taken from patent US20220401564A1 (DANA-FARBER CANCER INSTITUTE, INC., priority 2019, published 2022).

How the values were obtained:
HDAC3 = HDAC3 (Homo sapiens, UniProt O15379); experiment: Change in cellular protein abundance (TMT proteomics) in Kelly cells; format: cell-based; parameters: relative change in relative protein abundance with treatment of Kelly cells; endogenous in cells; host or cells: Kelly cells; settings: scatter plots FIG. 1 and FIG. 3
Experimental: Lysis buffer (8 M Urea, 50 mM NaCl, 50 mM 4-(2hydroxyethyl)-1-piperazineethanesulfonic acid (EPPS) pH 8.5, protease and phosphatase inhibitors from Roche®) were added to the cell pellets and homogenized by 20 passes through a 21 gauge (1.25 in. long) needle to achieve a cell lysate with a protein concentration between 1-4 mg mL-1. A micro-BCA assay (Pierce™) was used to determine the final protein concentration in the cell lysate. 200 μg of protein for each sample were reduced and alkylated as described in Donovan et al., Elife 7:e38430 (2018).
Proteins were precipitated using methanol/chloroform. Four volumes of methanol were added to the cell lysate, followed by one volume of chloroform, and finally three volumes of water. The mixture was vortexed and centrifuged to separate the chloroform phase from the aqueous phase. The precipitated protein was washed with three volumes of methanol, centrifuged and the resulting washed precipitated protein was allowed to air dry. The precipitated protein was resuspended in 4 M Urea, 50 mM HEPES pH 7.4, followed by dilution to 1 M urea with the addition of 200 mM EPPS, pH 8. Proteins were first digested with LysC (1:50; enzyme:protein) for 12 hours at room temperature. The LysC digestion was diluted to 0.5 M Urea with 200 mM EPPS pH 8 followed by digestion with trypsin (1:50; enzyme:protein) for 6 hours at 37° C. Tandem mass tag (TMT) reagents (Thermo Fisher Scientific) were dissolved in anhydrous acetonitrile (ACN) according to manufacturer's instructions.
Anhydrous ACN was added to each peptide sample to a final concentration of 30% v/v, and labeling was induced with the addition of TMT reagent to each sample at a ratio of 1:4 peptide:TMT label. The 10-plex labeling reactions were performed for 1.5 hours at room temperature and the reaction quenched by the addition of hydroxylamine to a final concentration of 0.3% for 15 minutes at room temperature. The sample channels were combined at a 1:1:1:1:1:1:1:1:1:1:1 ratio, desalted using Cis solid phase extraction cartridges (Waters®) and analyzed by LC-MS for channel ratio comparison. Samples were then combined using the adjusted volumes determined in the channel ratio analysis and dried down in a speed vacuum. The combined sample was then resuspended in 1% formic acid, and acidified (pH 2-3) before being subjected to desalting with C18 SPE (Sep-Pak®, Waters®). Samples were then offline fractionated into 96 fractions by high pH reverse-phase HPLC (Agilent® LC1260) through an aeris peptide xb-c18 column (Phenomenex®) with mobile phase A containing 5% acetonitrile and 10 mM NH4HCO3 in LC-MS grade H2O, and mobile phase B containing 90% acetonitrile and 10 mM NH4HCO3 in LC-MS grade H2O (both pH 8.0). The 96 resulting fractions were then pooled in a non-continuous manner into 24 fractions and these fractions were used for subsequent mass spectrometry analysis.
Data were collected using an Orbitrap Fusion™ Lumos™ mass spectrometer (Thermo Fisher Scientific, San Jose, Calif., USA) coupled with a Proxeon EASY-nLC™ 1200 LC pump (Thermo Fisher Scientific). Peptides were separated on an EasySpray™ ES803 75 μm inner diameter microcapillary column (ThermoFisher Scientific).
Each analysis used an MS3-based TMT method as described previously. The data were acquired using a mass range of m z 340-1350, resolution 120,000, automatic gain control (AGC) target 1×10^6, maximum injection time 100 ms, dynamic exclusion of 120 seconds for the peptide measurements in the Orbitrap Fusion™ Lumos™ mass spectrometer. Data dependent MS2 spectra were acquired in the ion trap with a normalized collision energy (NCE) set at 55%, AGC target set to 1.5×10^5 and a maximum injection time of 150 ms. […]

VHL = molecular target: T1, VHL (Homo sapiens, UniProt P40337); experiment: Cellular VHL engagement assay (BRD4BD2-GFP / mCherry reporter cells); format: cell-based; settings: with 250 nM AT1, 5 h
T1 construct: Cells stably expressing the BRD4BD2-GFP with mCherry reporter (40) were seeded; endogenous in cells
T1 sequence (P40337 whole entry, species assumed): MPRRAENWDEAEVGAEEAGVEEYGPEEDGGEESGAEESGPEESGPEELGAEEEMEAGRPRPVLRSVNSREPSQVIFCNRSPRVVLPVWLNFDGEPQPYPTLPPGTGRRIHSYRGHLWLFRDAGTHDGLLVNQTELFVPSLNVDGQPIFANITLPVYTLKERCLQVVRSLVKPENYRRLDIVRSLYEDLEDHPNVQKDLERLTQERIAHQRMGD
Experimental: Cells stably expressing the BRD4BD2-GFP with mCherry reporter (40) were seeded at 30-50% confluency in 384-well plates with 50 μL per well of FluoroBrite™ DMEM media (Thermo Fisher Scientific, A18967) supplemented with 10% FBS a day before compound treatment. Compounds and 250 nM AT1((2S,4R)-1-(2R)-2-Acetamido-3-[[6-[2-[(6S)-4-(4-chlorophenyl)-2,3,9-trimethyl-6H-thieno[3,2-f][1,2,4]triazolo[4,3-a][1,4]diazepin-6-yl]acetamido]hexyl]thio]-3-methylbutanoyl]-4-hydroxy-N-[4-(4-methylthiazol-5-yl)benzyl)pyrrolidinine-2-carboxamide) were dispensed using a D300e Digital Dispenser (HP), normalized to 0.5% DMSO, and incubated with the cells for 5 h. The assay plate was imaged immediately using an Acumen® High Content Imager (TTP Labtech) with 488 nm and 561 nm lasers in a […] grid per well format. The resulting images were analyzed using CellProfiler™.
A series of image analysis steps (an ‘image analysis pipeline’) was constructed. First, the red and green channels were aligned and cropped to target the middle of each well (to avoid analysis of the heavily clumped cells at the edges). A background illumination function was calculated for both red and green channels of each well individually and subtracted to correct for illumination variations across the 384-well plate from various sources of error. An additional step was then applied to the green channel to suppress the analysis of large auto fluorescent artifacts and enhance the analysis of cell specific fluorescence by way of selecting for objects under a given size (30 A.U.) and with a given shape (speckles). mCherry-positive cells were then identified in the red channel by filtering for objects 8-60 pixels in diameter and by using intensity to distinguish between clumped objects. The green channel was then segmented into GFP positive and negative areas and objects were labeled as GFP positive if at least 40% of it overlapped with a GFP positive area. The fraction of GFP-positive cells/mCherry-positive cells in each well was then calculated, and the green and red images were rescaled for visualization.

Chain of HDAC3 (O15379 whole entry): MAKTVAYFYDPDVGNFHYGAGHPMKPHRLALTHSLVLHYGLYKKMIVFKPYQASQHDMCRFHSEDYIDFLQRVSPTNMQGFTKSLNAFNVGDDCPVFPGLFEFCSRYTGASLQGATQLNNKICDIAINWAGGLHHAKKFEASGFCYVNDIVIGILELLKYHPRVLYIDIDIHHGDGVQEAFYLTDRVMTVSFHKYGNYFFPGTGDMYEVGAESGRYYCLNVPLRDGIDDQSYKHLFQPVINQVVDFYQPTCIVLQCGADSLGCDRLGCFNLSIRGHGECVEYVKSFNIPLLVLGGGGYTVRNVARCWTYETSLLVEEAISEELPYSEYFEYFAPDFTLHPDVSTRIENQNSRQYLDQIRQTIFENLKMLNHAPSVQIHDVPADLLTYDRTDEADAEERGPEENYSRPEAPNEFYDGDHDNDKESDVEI

| HDAC3 protein levels, relative protein abundance compared to DMSO control (HDAC3) | IC50 (VHL) [µM] | Compound |
| --- | --- | --- |
| significant and selective reduction |  | Cc1ncsc1-c1ccc([C@H](C)NC(=O)[C@@H]2C[C@@H](O)CN2C(=O)[C@@H](NC(=O)CCOCCOCCOCCN(CCc2c[nH]c3ccccc23)Cc2ccc(/C=C/C(=O)Nc3ccccc3N)cc2)C(C)(C)C)cc1 [Compound 11, (2S,4R)-1-((S)-3-(4-((E)-3-((2-aminophenyl)amino)-3-oxoprop-1-en-1-yl)benzyl)-17-(tert-butyl)-1-(1H-indol-3-yl)-15-oxo-6,9,12-trioxa-3,16-diazaoctadecan-18-oyl)-4-hydroxy-N—((S)-1-(4-(4-methylthiazol-5-yl)phenyl)ethyl)pyrrolidine-2-carboxamide] |
| significant and selective reduction | 15.1 | Cc1ncsc1-c1ccc([C@H](C)NC(=O)[C@@H]2C[C@@H](O)CN2C(=O)[C@@H](NC(=O)CCOCCOCCOCCN(CCc2c[nH]c3ccccc23)Cc2ccc(/C=C/C(=O)NO)cc2)C(C)(C)C)cc1 [Compound 3, (2S,4R)-1-((S)-17-(tert-butyl)-3-(4-((E)-3-(hydroxyamino)-3-oxoprop-1-en-1-yl)benzyl)-1-(1H-indol-3-yl)-15-oxo-6,9,12-trioxa-3,16-diazaoctadecan-18-oyl)-4-hydroxy-N—((S)-1-(4-(4-methylthiazol-5-yl)phenyl)ethyl)pyrrolidine-2-carboxamide] |

The remaining lines, values behind:

| Compound | HDAC3 protein levels, relative protein abundance compared to DMSO control (HDAC3) | IC50 (VHL) [µM] |
| --- | --- | --- |
| Cc1ncsc1-c1ccc([C@H](C)NC(=O)[C@@H]2C[C@@H](O)CN2C(=O)[C@@H](NC(=O)CCOCCOCCOCCOCCN(CCc2c[nH]c3ccccc23)Cc2ccc(/C=C/C(=O)Nc3ccccc3N)cc2)C(C)(C)C)cc1 [Compound 12, (2S,4R)-1-((S)-3-(4-((E)-3-((2-aminophenyl)amino)-3-oxoprop-1-en-1-yl)benzyl)-20-(tert-butyl)-1-(1H-indol-3-yl)-18-oxo-6,9,12,15-tetraoxa-3,19-diazahenicosan-21-oyl)-4-hydroxy-N—((S)-1-(4-(4-methylthiazol-5-yl)phenyl)ethyl)pyrrolidine-2-carboxamide] | significant and selective reduction |  |
| Cc1ncsc1-c1ccc([C@H](C)NC(=O)[C@@H]2C[C@@H](O)CN2C(=O)[C@@H](NC(=O)CCOCCOCCN(CCc2c[nH]c3ccccc23)Cc2ccc(/C=C/C(=O)Nc3ccccc3N)cc2)C(C)(C)C)cc1 [Compound 10] | significant and selective reduction | 9 |
| Cc1ncsc1-c1ccc([C@H](C)NC(=O)[C@@H]2C[C@@H](O)CN2C(=O)[C@@H](NC(=O)CCOCCOCCOCCOCCOCCN(CCc2c[nH]c3ccccc23)Cc2ccc(/C=C/C(=O)NO)cc2)C(C)(C)C)cc1 [Compound 5, (2S,4R)-1-((S)-23-(tert-butyl)-3-(4-((E)-3-(hydroxyamino)-3-oxoprop-1-en-1-yl)benzyl)-1-(1H-indol-3-yl)-21-oxo-6,9,12,15,18-pentaoxa-3,22-diazatetracosan-24-oyl)-4-hydroxy-N—((S)-1-(4-(4-methylthiazol-5-yl)phenyl)ethyl)pyrrolidine-2-carboxamide] | significant and selective reduction | 19.3 |
| Cc1ncsc1-c1ccc([C@H](C)NC(=O)[C@@H]2C[C@@H](O)CN2C(=O)[C@@H](NC(=O)CCOCCOCCOCCOCCN(CCc2c[nH]c3ccccc23)Cc2ccc(/C=C/C(=O)NO)cc2)C(C)(C)C)cc1 [Compound 4] |  | 22.9 |
| Cc1ncsc1-c1ccc(CNC(=O)[C@@H]2C[C@@H](O)CN2C(=O)[C@@H](NC(=O)C2(F)CC2)C(C)(C)C)c(OCCOCCOCCN(CCc2c[nH]c3ccccc23)Cc2ccc(/C=C/C(=O)NO)cc2)c1 [Compound 8, (2S,4R)—N-(2-(2-(2-(2-((2-(1H-indol-3-yl)ethyl)(4-((E)-3-(hydroxyamino)-3-oxoprop-1-en-1-yl)benzyl)amino)ethoxy)ethoxy)ethoxy)-4-(4-methylthiazol-5-yl)benzyl)-1-((S)-2-(1-fluorocyclopropane-1-carboxamido)-3,3-dimethylbutanoyl)-4-hydroxypyrrolidine-2-carboxamide] |  | 10.1 |
